Assay results reported in the supplement of paper PMC11208160.

Experiment: recombinant UMI read abundance after kanamycin selection (control-corrected) (log10(CPM+1)); higher = more efficient recombination; extreme values may be limits of the assay; sequences stand for … in AGTGCAGAGAAAATCGGCCAGTTTTCTCTGCCTGCAGTCCGCATGCCGTGGGACCCCTTGGGTTCTAACCTGTTGCCTAGATTTATGCAGCGGACTGCCTTTCTCCCAAAGTGATAAACCGG…AGGTTGGTTTCACT; site = the 11-nt donor
Description: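 Pooled E. coli donor-specificity screen for the IS621 bridge recombinase. Each library member carries a reprogrammed 11-nt donor and a full-length LE bridge RNA expressed in cis from the natural promoter, with a paired donor-binding loop (8-nt LDG + 4-nt RDG) and a target-binding loop fixed to T5. It is co-electroporated with a T5 target plasmid; recombinase is induced with 0.07 mM IPTG and recombinants are selected on kanamycin. UMIs are counted as CPM, averaged over two biological replicates and corrected by the unselected control. Molecule = full bridge RNA written as DNA, built from the T5 scaffold: LDG = donor specificity nt 1-8, RDG = reverse complement of nt 8-11.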
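Also: IS621 bridge recombinase in Escherichia coli cells against a fixed T5 target plasmid.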

| Sequence | recombinant UMI read abundance (log10) |
| --- | --- |
| ACTAGTGCATGGACCGGTTTTCCCGGTAATCCGTATTTGGT (site ACTAGTCCTAC) | 0.0182 |
| ACTAGTGCATGGACCGGTTTTCCCGGTAATCCGTATTTGGT (site ACTAGTGCTAA) | 0.00318 |
| ACTAGTGCATGGACCGGTTTTCCCGGTAATCCGTATTTGGT (site ACTAGTGCTAC) | 1.55 |
| ACTAGTGCATGGACCGGTTTTCCCGGTAATCCGTATTTGGT (site ACTAGTGCTAG) | 0.699 |
| ACTAGTGCATGGACCGGTTTTCCCGGTAATCCGTATTTGGT (site ACTAGTGCTAT) | 1.2 |
| ACTAGTGCATGGACCGGTTTTCCCGGTAATCCGTATTTGGT (site ACTAGTGCTCC) | 0.0239 |
| ACTAGTGCATGGACCGGTTTTCCCGGTAATCCGTATTTGGT (site ACTAGTGCTGC) | 0 |
| ACTAGTGCATGGACCGGTTTTCCCGGTAATCCGTATTTGGT (site ACTAGTGCTTC) | 0.0165 |
| ACTAGTGCATGGACCGGTTTTCCCGGTAATCCGTATTTGGT (site ACTAGTTCTAC) | 0.264 |
| ACTAGTGCATGGACCGGTTTTCCCGGTAATCCGTATTTGGT (site ACTATTGCTAC) | 0.975 |
| ACTAGTGCATGGACCGGTTTTCCCGGTAATCCGTATTTGGT (site ACTCGTGCTAC) | 0.265 |
| ACTAGTGCATGGACCGGTTTTCCCGGTAATCCGTATTTGGT (site ACTGGTGCTAC) | 0.583 |
| ACTAGTGCATGGACCGGTTTTCCCGGTAATCCGTATTTGGT (site ACTTGTGCTAC) | 0.26 |
| ACTAGTGCATGGACCGGTTTTCCCGGTAATCCGTATTTGGT (site AGTAGTGCTAC) | 0.424 |
| ACTAGTGCATGGACCGGTTTTCCCGGTAATCCGTATTTGGT (site ATTAGTGCTAC) | 1.01 |
| ACTAGTGCATGGACCGGTTTTCCCGGTAATCCGTATTTGGT (site CCTAGTGCTAC) | 0.821 |

| Sequence | recombinant UMI read abundance (log10) |
| --- | --- |
| ACTAGTGCATGGACCGGTTTTCCCGGTAATCCGTATTTGGT (site GCTAGTGCTAC) | 0.338 |
| ACTAGTGCATGGACCGGTTTTCCCGGTAATCCGTATTTGGT (site TCTAGTGCTAC) | 0.86 |
| ACTAGTTCATGGACCGGTTTTCCCGGTAATCCGTATTTGGT (site ACTAGTACTAC) | 0.293 |
| ACTAGTTCATGGACCGGTTTTCCCGGTAATCCGTATTTGGT (site ACTAGTCCTAC) | 0.0335 |
| ACTAGTTCATGGACCGGTTTTCCCGGTAATCCGTATTTGGT (site ACTAGTGCTAC) | 0.00523 |
| ACTAGTTCATGGACCGGTTTTCCCGGTAATCCGTATTTGGT (site ACTAGTTCTAC) | 1.89 |
| ACTCCAGCATGGACCGGTTTTCCCGGTAATCCGTATTTGCG (site ACTCCAGCTCG) | 0.0064 |
| ACTCCTGCATGGACCGGTTTTCCCGGTAATCCGTATTTGAC (site ACTCCTGCTGT) | 0.671 |
| ACTCGAACATGGACCGGTTTTCCCGGTAATCCGTATTTGAG (site ACTAGAACTCT) | 0.00419 |
| ACTCGAACATGGACCGGTTTTCCCGGTAATCCGTATTTGAG (site ACTCGAACTCT) | 1.16 |
| ACTCGAACATGGACCGGTTTTCCCGGTAATCCGTATTTGAG (site ACTGGAACTCT) | 0.00958 |
| ACTCGAACATGGACCGGTTTTCCCGGTAATCCGTATTTGAG (site ACTTGAACTCT) | 0.00429 |
| ACTCGGCCATGGACCGGTTTTCCCGGTAATCCGTATTTGGT (site ACTCGGCCTAC) | 0.00855 |
| ACTCTCCCATGGACCGGTTTTCCCGGTAATCCGTATTTGGA (site ACTCTCCCTTC) | 0.0237 |
| ACTGAAGCATGGACCGGTTTTCCCGGTAATCCGTATTTGTA (site ACTGAAGCTTA) | 2.5 |
| ACTGAGACATGGACCGGTTTTCCCGGTAATCCGTATTTGGT (site AATGAGACTAC) | 0.158 |
